The subject of one data set is Sphaerotheca fuliginea. Put plainly: Sphaerotheca test (cucumber)/protective. In kind it is in vivo. The settings on record: Podosphaera fuliginea, 168 h, read-out: Efficacy in %. The method, then:
Sphaerotheca Test (Cucumber)/Protective
• Solvents: 24.5 parts by weight of acetone • 24.5 parts by weight of N,N-dimethylacetamide • Emulsifier: 1 part by weight of alkylaryl polyglycol ether
(§1) To produce a suitable preparation of active compound, 1 part by weight of active compound is mixed with the stated amounts of solvents and emulsifier, and the concentrate is diluted with water to the desired concentration.
To test for protective activity, young cucumber plants are sprayed with the preparation of active compound at the stated application rate. After the spray coating has dried on, the plants are inoculated with an aqueous spore suspension of Sphaerotheca fuliginea. The plants are then placed in a greenhouse at about 23° C. and a relative atmospheric humidity of about 70%.
(§2) Evaluation is carried out 7 days after the inoculation. 0% means an efficacy which corresponds to that of the control, whereas an efficacy of 100% means that no infection is observed.

A further data set relates to Venturia inaequalis. Put plainly: Venturia test (apple)/protective. The settings on record: apple plants, protective spray, application rate 100 g/ha, evaluation 10 days after inoculation. The class given is in vivo. The method, then: Venturia Test (Apple)/Protective
• Solvents: 2.5 parts by weight of acetone • 24.5 parts by weight of dimethylacetamide • Emulsifier: 1.0 part by weight of alkylaryl polyglycol ether
as §1
To test for protective activity, young plants are sprayed with the preparation of active compound at the stated application rate. After the spray coating has dried on, the plants are inoculated with an aqueous conidia suspension of the apple scab pathogen Venturia inaequalis and then remain in an incubation cabinet at about 20° C. and 100% relative atmospheric humidity for 1 day.
The plants are then placed in a greenhouse at about 21° C. and a relative atmospheric humidity of about 90%.
(§3) Evaluation is carried out 10 days after the inoculation. 0% means an efficacy which corresponds to that of the control, whereas an efficacy of 100% means that no infection is observed.

Data set [1] in a line: logP determination by HPLC on reversed-phase column (EEC directive 79/831 Annex V.A8). The settings on record: reversed-phase C18 HPLC column, pH 2.3, C 18 reversed-phase, 43° C., 0.1% aqueous phosphoric acid/acetonitrile gradient. The class given is physicochemical. On the procedure: The logP values given in the Preparation Examples were determined in accordance with EEC directive 79/831 Annex V.A8 by HPLC (High Performance Liquid Chromatography) on a reversed-phase column (C 18). Temperature: 43° C.
Mobile phases for the determination in the acidic range: 0.1% aqueous phosphoric acid, acetonitrile; linear gradient from 10% acetonitrile to 90% acetonitrile.
Calibration was carried out using unbranched alkan-2-ones (having 3 to 16 carbon atoms) with known logP values (determination of the logP values by the retention times using linear interpolation between two successive alkanones).

A further data set has as its system Puccinia recondita. Put plainly: Puccinia test (wheat)/protective. In kind it is in vivo. The settings on record: wheat plants, protective spray, application rate 500 g/ha, evaluation 10 days after inoculation. The method, then:
Puccinia Test (Wheat)/Protective
• Solvent: 25 parts by weight of N,N-dimethylacetamide • Emulsifier: 0.6 part by weight of alkylaryl polyglycol ether
(§4) To produce a suitable preparation of active compound, 1 part by weight of active compound is mixed with the stated amounts of solvent and emulsifier, and the concentrate is diluted with water to the desired concentration.
To test for protective activity, young plants are sprayed with the preparation of active compound at the stated application rate. After the spray coating has dried on, the plants are sprayed with a conidia suspension of Puccinia recondita. The plants remain in an incubation cabin at about 20° C. and 100% relative atmospheric humidity for 48 hours.
The plants are then placed in a greenhouse at a temperature of about 20° C. and a relative atmospheric humidity of 80% to promote the development of rust pustules.
as §3

For a further data set, the system named is Alternaria solani. Put plainly: Alternaria test (tomato)/protective. In kind it is in vivo. The settings on record: tomato plants, protective spray, application rate 750 g/ha, evaluation 7 days after inoculation. On the procedure:
Alternaria Test (Tomato)/Protective
• Solvent: 49 parts by weight of N,N-dimethylformamide • Emulsifier: 1 part by weight of alkylaryl polyglycol ether
as §4
To test for protective activity, young tomato plants are sprayed with the preparation of active compound at the stated application rate. 1 day after the treatment, the plants are inoculated with a spore suspension of Alternaria solani. The plants then remain at 100% relative atmospheric humidity and 20° C. for 24 hours. Subsequently, the plants remain at 96% relative atmospheric humidity and a temperature of 20° C.
as §2

Setting [2] is: cucumber plants, protective spray, application rate 100 g/ha, evaluation 7 days after inoculation.

Read-outs that look alike come from different tables or passages of the source.

For `Cc1nc(C(F)F)c(C(=O)Nc2ccccc2C2CCCCC2)s1` [Example 1, N-(2-cyclohexylphenyl)-4-(difluoromethyl)-2-methyl-1,3-thiazole-5-carboxamide], in the data set on Sphaerotheca fuliginea (setting [2]), the pest or weed control at 100 g/ha turned out to be 89%. Also, the Efficacy in % with Venturia inaequalis and with Puccinia recondita was 100% in each case. Moreover, the chromatographic logP in data set [1] was 3.5.

On to `Cc1nc(C(F)F)c(C(=O)Nc2ccccc2C2CC3CCC2C3)s1` (stereo not shown) [Example 2, N-(2-bicyclo[2.2.1]hept-2-ylphenyl)-4-(difluoromethyl)-2-methyl-1,3-thiazole-5-carboxamide], for which the pest or weed control at 100 g/ha in the data set with Sphaerotheca fuliginea came to 100%. For the same compound, the Efficacy in % with Venturia inaequalis and with Puccinia recondita was 100% each time. The compound also registered a chromatographic logP in data set [1] of 3.63.

`Cc1nc(C(F)F)c(C(=O)Nc2ccc(F)cc2C2CCCC2)s1` [Example 6]: the pest or weed control at 100 g/ha with Sphaerotheca fuliginea (setting [2]) worked out at 88%. Also, the Efficacy in % with Venturia inaequalis came to 99%. In data set [1], this compound came in with a chromatographic logP of 3.24.

For the compound `Cc1nc(C(F)F)c(C(=O)Nc2ccccc2C2CCCCCCC2)s1` [Example 8], in the data set with Sphaerotheca fuliginea (setting [2]), the pest or weed control at 100 g/ha is 93%. Moreover, the Efficacy in % in the data set with Venturia inaequalis and in the data set with Puccinia recondita was 100% each time. This compound also yielded a chromatographic logP in data set [1] of 4.06.

With `Cc1nc(C(F)F)c(C(=O)Nc2ccc(Br)cc2C2CC3CCC2C3)s1` (stereo not shown) [Example 14], in the data set with Sphaerotheca fuliginea (setting [2]), the pest or weed control at 100 g/ha came out at 100%. In addition, the Efficacy in % in the data set with Venturia inaequalis was 100%; in the data set with Alternaria solani, 95%. Also, the chromatographic logP in data set [1] worked out at 4.27.

As for `Cc1nc(C(F)F)c(C(=O)Nc2ccccc2C2CCC[C@@H](C)C2)s1` (stereo partly shown) [Example 18], in the data set on Sphaerotheca fuliginea (setting [2]), the pest or weed control at 100 g/ha was determined as 100%. Also, the Efficacy in % in the data set on Venturia inaequalis and with Alternaria solani was 100% each time. This compound registered a chromatographic logP in data set [1] of 3.88.

On to `Cc1nc(C(F)F)c(C(=O)N(C)c2ccccc2C2CC3CCC2C3)s1` (stereo not shown) [Example 19], for which the pest or weed control at 100 g/ha in the data set on Sphaerotheca fuliginea (setting [2]) is 98%. Besides, in data set [1], the chromatographic logP was 3.96.

For `Cc1nc(C(F)F)c(C(=O)N(C)c2ccccc2C2CCCCC2)s1` [Example 20], the pest or weed control at 100 g/ha in the data set with Sphaerotheca fuliginea (setting [2]) was 100%. In data set [1], the chromatographic logP was 3.85.

On to `CC(=O)N(C(=O)c1sc(C)nc1C(F)F)c1ccccc1C1CC2CCC1C2` (stereo not shown) [Example 21], for which the pest or weed control at 100 g/ha in the data set on Sphaerotheca fuliginea (setting [2]) came out at 98%. Moreover, the Efficacy in % in the data set with Venturia inaequalis amounted to 96%; with Alternaria solani, 100%. Further, the chromatographic logP in data set [1] is 3.95.

Turning to `CC(=O)N(C(=O)c1sc(C)nc1C(F)F)c1ccccc1C1CCCCC1` [Example 22], in the data set with Sphaerotheca fuliginea (setting [2]), the pest or weed control at 100 g/ha was 96%. Moreover, in data set [1], the chromatographic logP stood at 3.86. The compound further returned an Efficacy in % in the data set with Puccinia recondita of 93%.

Source of the values: patent US7470793B2, “Thiazol-(bi)cycloalkyl-carboxanilides” (priority 2002, dated 2008).
